How the values were obtained:
PYR1 K59R F108I S122G = molecular target: T1, PYR1 K59R F108I S122G (Arabidopsis thaliana, UniProt O49686, F108I/K59R/S122G); assay: Y2H Combinatorial Mutagenesis Screen I (HAB1, X-gal); assay type: cell-based
T1 construct: expressed in transfected cells; host or cells: S. cerevisiae Y190 two-hybrid reporter strain
Excerpt: (§1) This screening approach yielded mutants at ligand contacting residues that alter sensitivity to specific ligands. We reasoned that receptor sensitivity could be improved by systematically constructing combinations of the best mutant variants identified in the first round of screening. To test this, we constructed mutant combinations using the strongest mutations identified for mandipropamid, benzothiadiazole, benoxacor or fludioxonil sensitivity. The mutations selected for combinatorial mutagenesis are listed in bold type in Table 1; The mutant combinations were constructed using the QuickChange Lightning Multi Site-Directed PCR Mutagenesis kit (Agilent, USA) using pBD-PYR1^K59R template DNA and mutagenic primers, essentially as previously described (Mosquna et al., 2011). The mutant combinations were sequence validated, introduced into the pACT-HAB1 Y190 reporter strain and then tested for responsiveness to a range of compound concentrations (100, 50, 25, 10, 1, 0.2, 0.1 or 0 μM each test compound). These efforts yielded double mutant receptor variants with improved sensitivity for the 4 compound/receptor pairs examined (see entries labeled “Combinatorial Mutagenesis Screen I” in Table 1).

PYR1 K59R F108Q S122G = molecular target: T2, PYR1 K59R F108Q S122G (Arabidopsis thaliana, UniProt O49686, F108Q/K59R/S122G); assay: as above; assay type: cell-based
T2 construct: expressed in transfected cells; host or cells: S. cerevisiae Y190 two-hybrid reporter strain
Excerpt: as §1

[1] = molecular target: T3, PYR1 Y58H K59R F108A S122G (Arabidopsis thaliana, UniProt O49686, F108A/K59R/S122G/Y58H); assay: Y2H Recombination Mutagenesis (HAB1, X-gal); assay type: cell-based
T3 construct: expressed in transfected cells; host or cells: S. cerevisiae Y190 pACT-HAB1
Excerpt: As a second approach, we used recombination-based mutagenesis to search for mutant combinations that enhance the sensitivity of PYR1^K59R,F108A,S122G to mandipropamid. Nucleotide excision and exchange technology (NExT) (Müller et al., 2005) was used to mutagenize an equal amount of PYR1^K59R,F108A,S122G template with an equal amount of template DNA that was made by pooling plasmid DNA from the NNK plasmid libraries made above for each of the 23 ligand-contacting residues in the PYR1^K59R,F108A,S122G backbone. Thus, PYR1^K59R,F108A,S122G was mutagenized with recombination-based mutagenesis using a library of pocket site mutations. An ˜200,000 member library of mutagenized clones was generated and was transformed into the MAV99 pACT-HAB1 reporter strain. Selections were conducted on plates containing 0.5 μM mandipropamid and appropriate nutrients and amino acids. To establish if strain growth was ligand dependent, the positive clones were subsequently tested for growth on selective plates lacking mandipropamid. Next, plasmids were isolated from strains showing ligand-dependent growth and the mandipropamid sensitivity of mutant receptors characterized using X-gal staining (after transformation into the into the Y190 pACT-HAB1 reporter strain). […]

[2] = test system: MDP1 and MDP2 genotypes (35S::PYR1^MANDI); assay: survival after water deprivation and re-watering; assay type: in vivo, Arabidopsis; conditions: 1 μM mandipropamid, 11 days water deprivation
Procedure: Examples 6 and 8 disclosed that mandipropamid treatments of PYR1^MANDI transgenic plants are sufficient to close guard cells (as indicated by thermal imaging) and confer drought tolerance. To investigate these responses further we performed three additional experiments using wild type Columbia, PYR1-OX and the MDP1 and MDP2 genotypes. Each experiment was conducted independently of the other at different times over the course of 8 months. Each experiment characterized 3 pots of each genotype (each pot contained 4 plants). After 2 weeks (exp. 1) or 3 weeks (Experiments 2 and 3) watering was ceased and the plants were treated with a mock or 1 μM mandipropamid solution made in water containing 0.02% Silwet L-77. These treatments were repeated every 4 (Experiment 1) or 3 days (Experiments 2 and 3). […] After 10 to 11 days of water deprivation the plants were re-watered to assess survival rates after extreme water deprivation. […] Inset in each image are the survival counts from Experiment 1 (upper numbers) and Experiments 2 and 3 (lower numbers). The survival rates have been separated because the experimental protocol for Experiment 1 differed from Experiments 2 and 3.
Plants were grown for ˜4 weeks until initial floral meristems became obvious, after which watering was ceased and the plants were treated with either a mock or 1 μM mandipropamid solution. […]

[3] = test system: MDP1 and MDP2 transgenic lines (35S::PYR1^MANDI); assay: thermal imaging of leaf temperature; assay type: in vivo, Arabidopsis; conditions: 1 μM mandipropamid, 24 hours after first application
[4] = test system: 35S::PYR1^MANDI lines MDP1, MDP2, MDP3; assay: seed germination assay, 250 nM mandipropamid; assay type: in vivo, Arabidopsis; conditions: 3 days post-stratification
Excerpt: To further characterize the physiological effects of the PYR1^MANDI/mandipropamid interaction, we characterized three independently generated transgenic Arabidopsis lines in more detail. These lines, initially named E9, E16 and E31 are henceforth referred to as MPD1, MPD2 and MPD3. Each of these lines is homozygous for a single 35S::PYR1^MANDI insertion site and is the result of independent transformation events. We first used germination assays to characterize the relative mandipropamid sensitivity of these lines. Seeds for the transgenics and wild type control were surface sterilized with bleach and then stratified for 4 days at 4° C. on 0.7% agar petri plates containing ½ MS salts and 0.5% sucrose in addition to either 250 nM mandipropamid or a mock treatment of 0.1% DMSO (the carrier solvent). After stratification, the plates were transferred to a growth chamber operating on a 16-hour day length cycle. Seed germination was scored 3 days post-stratification. […] To more definitively assess the relative sensitivity of the MDP1 and MDP2 lines to mandipropamid, we conducted germination dose-response experiments (using the same procedure described above) and confirmed that the MDP1 line is more sensitive to mandipropamid than MDP2 (FIG. 7B).

T2 sequence (O49686 whole entry K59R/F108Q/S122G): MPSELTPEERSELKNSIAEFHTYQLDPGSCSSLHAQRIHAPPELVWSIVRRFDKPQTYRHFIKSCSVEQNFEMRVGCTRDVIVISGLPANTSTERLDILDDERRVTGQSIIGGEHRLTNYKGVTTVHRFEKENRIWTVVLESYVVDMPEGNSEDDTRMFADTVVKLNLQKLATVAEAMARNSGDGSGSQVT
T2 sequence (Q9CAJ0 23-511 partner): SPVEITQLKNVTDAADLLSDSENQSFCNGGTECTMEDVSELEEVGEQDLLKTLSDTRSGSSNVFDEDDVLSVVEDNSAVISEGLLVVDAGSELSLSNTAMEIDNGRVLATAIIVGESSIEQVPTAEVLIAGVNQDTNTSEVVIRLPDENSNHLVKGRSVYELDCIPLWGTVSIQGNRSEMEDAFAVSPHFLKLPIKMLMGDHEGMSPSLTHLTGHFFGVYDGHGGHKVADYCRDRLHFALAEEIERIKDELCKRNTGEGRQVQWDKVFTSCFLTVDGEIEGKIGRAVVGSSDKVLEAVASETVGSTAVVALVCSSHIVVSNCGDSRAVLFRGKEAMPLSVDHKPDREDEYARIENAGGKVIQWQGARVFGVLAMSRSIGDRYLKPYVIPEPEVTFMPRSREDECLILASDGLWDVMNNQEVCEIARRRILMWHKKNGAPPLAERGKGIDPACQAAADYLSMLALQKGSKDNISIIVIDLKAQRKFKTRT
T3 sequence (O49686 whole entry Y58H/K59R/F108A/S122G): as the sequence (O49686 whole entry K59R/F108Q/S122G) above, with Y58H, Q108A counted along it
T3 sequence (Q9CAJ0 23-511 partner): as the sequence (Q9CAJ0 23-511 partner) above
T1 sequence (O49686 whole entry K59R/F108I/S122G): as the sequence (O49686 whole entry K59R/F108Q/S122G) above, with Q108I counted along it
T1 sequence (Q9CAJ0 23-511 partner): as the sequence (Q9CAJ0 23-511 partner) above

C#CCOc1ccc(CCNC(=O)C(OCC#C)c2ccc(Cl)cc2)cc1OC (stereo not shown) [Mandipropamid, mandipropamid]
Threshold (PYR1 K59R F108I S122G): 10 µM
Threshold (PYR1 K59R F108Q S122G): 10 µM
Threshold [1]: 0.25 µM
survival rates after water deprivation and re-watering, relative to wild type and PYR1-OX controls [2]: greatly improved
leaf temperature [3]: increased leaf temperature
seed germination ([4]; MDP1 seed, 250 nM mandipropamid): near complete germination inhibition
seed germination ([4]; MDP3, 250 nM mandipropamid): minimal sensitivity
